Test systems include SF-268; MDA-N; UACC-257; OVCAR-3; SK-MEL-2; IGROV-1; UO-31; NCI-H23; U-251; SR; ACHN; HOP-62; RPMI-8226; OVCAR-4; RXF 393; NCI-H226; K562; EKVX; SK-OV-3.
Holding throughout (test): NCI tumour cell line growth inhibition, 48 h

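Assay format: 96-well plates, 48-hour exposure. GI50 is the concentration that inhibits growth by half.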 Active and inactive are the calls of the source. No stated cut-off is given here; in the data, active = GI50 up to about 1.1 µM and inactive = higher.

Turning to `CC(=O)c1ccc2c3c1[C@H]1O[C@H]1c1cccc(c1-3)[C@@H]1O[C@H]21`, the GI50 was 1.51 µM (inactive) in the experiment on SF-268; 2.32 µM (inactive) in the experiment with MDA-N; 2.04 µM (inactive) in the experiment with UACC-257; 3.27 µM (inactive) in the experiment on OVCAR-3; 2.74 µM (inactive) in the experiment with SK-MEL-2; 0.112 µM (active) with IGROV-1. Also, the GI50 in the experiment on UO-31 was 1.69 µM (inactive); in the experiment on NCI-H23, 1.49 µM (inactive); with U-251, 1.93 µM (inactive); in the experiment with SR, 4.57 µM (inactive); with ACHN, 1.94 µM (inactive); with HOP-62, 2.39 µM (inactive). Further, the GI50 is 2.09 µM (inactive) in the experiment with RPMI-8226; 1.67 µM (inactive) in the experiment on OVCAR-4; 1.93 µM (inactive) with RXF 393; 29.4 µM (inactive) with NCI-H226; 0.444 µM (active) with K562; 1.9 µM (inactive) with EKVX. The GI50 in the experiment on SK-OV-3 was 5.32 µM (inactive).
Regarding `COc1cc2c(cc1C)NC(=O)/C2=C/c1c(Cl)[nH]c2cc(C)c(OC)cc12`, the GI50 in the experiment on SF-268 was 2.79 µM (inactive); in the experiment with MDA-N it was 2.84 µM (inactive); in the experiment with UACC-257, 9.64 µM (inactive); with OVCAR-3 it was 1.94 µM (inactive); with SK-MEL-2, 8.38 µM (inactive); in the experiment with IGROV-1, 1.32 µM (inactive). In addition, the GI50 in the experiment on UO-31 is 10 µM (inactive); with NCI-H23, 1.91 µM (inactive); with U-251, 2.86 µM (inactive); with SR, 0.428 µM (active); with ACHN, 2.25 µM (inactive); in the experiment on HOP-62 it was 10.1 µM (inactive). Further, the GI50 in the experiment on RPMI-8226 was 3.98 µM (inactive); in the experiment on OVCAR-4, 5.48 µM (inactive); with RXF 393 it was 6.81 µM (inactive); with NCI-H226 it was 17.2 µM (inactive); in the experiment on K562, 4.36 µM (inactive); in the experiment on EKVX, 8.04 µM (inactive). In addition, the GI50 in the experiment with SK-OV-3 is 1.3 µM (inactive).
Take `Cc1cc(C)c2c(O)cc(-c3ccc(Cl)cc3)nc2n1`: the GI50 was > 100 µM (inactive) with SF-268; 7.11 µM (inactive) in the experiment on MDA-N; 24.4 µM (inactive) with UACC-257; 26.9 µM (inactive) in the experiment with OVCAR-3; 47 µM (inactive) in the experiment with SK-MEL-2; 27.4 µM (inactive) with IGROV-1. Besides, the GI50 with UO-31 was 41.8 µM (inactive); with NCI-H23 it was 75 µM (inactive); in the experiment with U-251 it was 36.8 µM (inactive); in the experiment on SR, 37.6 µM (inactive); in the experiment on ACHN, 48 µM (inactive); in the experiment with HOP-62, 44.8 µM (inactive). Moreover, the GI50 with RPMI-8226 was 30.3 µM (inactive); in the experiment with OVCAR-4, 21.6 µM (inactive); in the experiment with RXF 393, 43.7 µM (inactive); with NCI-H226, > 100 µM (inactive); in the experiment on K562, 9.79 µM (inactive); in the experiment with EKVX, > 56.2 µM (inactive). The GI50 in the experiment with SK-OV-3 is 84.9 µM (inactive).
For the molecule `O=[N+]([O-])/C(Cl)=C(\Sc1ccccc1)C(Cl)=C(Cl)Cl`, the GI50 in the experiment on SF-268 is 1.4 µM (inactive); with MDA-N, 0.288 µM (active); in the experiment on UACC-257, 0.404 µM (active); with OVCAR-3 it was 1.52 µM (inactive); in the experiment on SK-MEL-2, 1.77 µM (inactive); with IGROV-1, 1.28 µM (inactive). For the same molecule, the GI50 in the experiment with UO-31 was 0.284 µM (active); with NCI-H23 it was 0.473 µM (active); in the experiment with U-251, 1.29 µM (inactive); in the experiment on SR it was 0.292 µM (active); with ACHN, 1.66 µM (inactive); in the experiment with HOP-62 it was 2.06 µM (inactive). The GI50 in the experiment with RPMI-8226 was 0.242 µM (active); in the experiment on OVCAR-4, 1.49 µM (inactive); in the experiment on RXF 393, 0.975 µM (active); in the experiment on NCI-H226, 2.23 µM (inactive); with K562 it was 0.294 µM (active); with EKVX, 2.04 µM (inactive). Also, the GI50 in the experiment on SK-OV-3 was 4.21 µM (inactive).
As for `CCC(NC(C)c1ccccc1)C(O)c1ccc(OCc2ccccc2)c(OCc2ccccc2)c1` (stereo not drawn), the GI50 is 19.4 µM (inactive) with SF-268; 15.3 µM (inactive) in the experiment with MDA-N; 4.04 µM (inactive) in the experiment with UACC-257; 12 µM (inactive) with OVCAR-3; 14.9 µM (inactive) in the experiment on SK-MEL-2; 18.6 µM (inactive) in the experiment with IGROV-1. Besides, the GI50 is 11 µM (inactive) in the experiment on UO-31; 16.4 µM (inactive) in the experiment with NCI-H23; 13 µM (inactive) in the experiment on U-251; 2.47 µM (inactive) in the experiment on SR; 18 µM (inactive) in the experiment on ACHN; 17.9 µM (inactive) in the experiment with HOP-62. The GI50 with RPMI-8226 was 4.04 µM (inactive); in the experiment on OVCAR-4 it was 16.4 µM (inactive); with RXF 393, 8.65 µM (inactive); with NCI-H226 it was 18.6 µM (inactive); in the experiment with K562, 3.22 µM (inactive); with EKVX, 16.5 µM (inactive). The GI50 in the experiment on SK-OV-3 was 15.5 µM (inactive).
Regarding `O=C(C/N=C(\CN(c1ccccc1)c1ccccc1)Oc1ccc(Cl)cc1Cl)n1ccnc1`, the GI50 in the experiment on SF-268, in the experiment on MDA-N, in the experiment with UACC-257, with OVCAR-3, in the experiment on SK-MEL-2 and in the experiment with IGROV-1 was > 100 µM (inactive) in each case. Moreover, the GI50 with UO-31, with NCI-H23, in the experiment with U-251, with SR, in the experiment on ACHN and with HOP-62 was > 100 µM (inactive) each time. Also, the GI50 in the experiment with RPMI-8226, in the experiment with OVCAR-4, in the experiment on RXF 393, in the experiment with NCI-H226, with K562 and with EKVX was > 100 µM (inactive) in each case. Moreover, in the experiment with SK-OV-3, the GI50 is > 100 µM (inactive).
On to `Nc1nc(N)c(-c2cccc(C(F)(F)F)c2)c(Cc2cccc(C(F)(F)F)c2)n1`, for which the GI50 in the experiment on SF-268 was 5.55 µM (inactive); with MDA-N, 0.689 µM (active); in the experiment on UACC-257 it was 3.43 µM (inactive); in the experiment with OVCAR-3 it was 6.03 µM (inactive); with SK-MEL-2, 7.71 µM (inactive); with IGROV-1, 1.91 µM (inactive). Also, the GI50 in the experiment with UO-31 was 6.32 µM (inactive); with NCI-H23, 2.01 µM (inactive); with U-251, 15.7 µM (inactive); in the experiment on SR, 1.25 µM (inactive); in the experiment on ACHN, 2.65 µM (inactive); with HOP-62 it was 6.05 µM (inactive). Also, the GI50 was 6.73 µM (inactive) in the experiment with RPMI-8226; 12.2 µM (inactive) in the experiment with OVCAR-4; 3.34 µM (inactive) in the experiment on RXF 393; 10.4 µM (inactive) with NCI-H226; 0.449 µM (active) with K562; 5.92 µM (inactive) in the experiment on EKVX. For the same molecule, in the experiment with SK-OV-3, the GI50 was 8.97 µM (inactive).

Source of the values: ChEMBL document CHEMBL1201862, “PubChem BioAssay data set” (2004).
